The results in this text go back to patent US12583851B2, “Heteroaryl-substituted pyrazine derivatives as pesticides” (Elanco Animal Health GmbH, priority 2019, dated 2026).

Molecules are shown by their SMILES.

Common to all, as to assay type: in vivo
Test [1] concerns fall armyworm larvae (Spodoptera frugiperda). The test can be described thus: Spodoptera frugiperda spray test. Particulars: 168 h, maize leaf sections, after 7 days. The procedure:
Spodoptera fruaiperda—Spray Test
Solvent: 78.0 parts by weight acetone • 1.5 parts by weight dimethylformamide
(§1) Emulsifier: alkylarylpolyglycol ether
To produce a suitable preparation of active compound, 1 part by weight of active compound is mixed with the stated amount of solvents and is diluted with water, containing an emulsifier concentration of 1000 ppm, to the desired concentration. Further test concentrations are prepared by dilution with emulsifier containing water.
Maize (Zea mays) leaf sections are sprayed with a preparation of the active ingredient of the desired concentration. Once dry, the leaf sections are infested with fall armyworm larvae (Spodoptera frugiperda).
After 7 days mortality in % is determined. 100% means all caterpillars have been killed and 0% means none of the caterpillars have been killed.

Test [2] deals with larvae of the banded cucumber beetle (Diabrotica balteata). The test can be described thus: Diabrotica balteata spray test. Particulars: 168 h, after 7 days, read-out: efficacy (seedling growth); for pest or weed control at 6.4 µg/disc, 20 g/ha: 20 g/ha (=6.4 μg/well); for pest or weed control at 32 µg/disc, 100 g/ha: 100 g/ha (=32 μg/well). The procedure:
Diabrotica balteata—Spray Test
Solvent: 78.0 parts by weight of acetone • • 1.5 parts by weight of dimethylformamide
as §1
To produce a suitable preparation of active compound, 1 part by weight of active compound is mixed with the stated amount of solvent, and the concentrate is diluted with water, containing an emulsifier concentration of 1000 ppm, to the desired concentration. Further test concentrations are prepared by dilution with emulsifier containing water.
Soaked wheat seeds (Triticum aestivum) are placed in a multiple well plate filled with agar and some water and are incubated for 1 day to germinate (5 seeds per well). The germinated wheat seeds are sprayed with a test solution containing the desired concentration of the active ingredient. Afterwards each unit is infected with 10-20 larvae of the banded cucumber beetle (Diabrotica balteata).
After 7 days efficacy in % is determined. 100% means all the seedlings have grown up like in the untreated, uninfected control; 0% means none of the seedlings have grown.

Test [3] concerns Rhipicephalus (Boophilus) microplus larvae (strain Parkhurst, resistant against synthetic pyrethroids). The test can be described thus: Rhipicephalus (Boophilus) microplus in-vitro contact test, larval cattle tick. Particulars: after 48 hours, read-out: efficacy (larvae dead or moribund); for pest or weed control at 1 µg/cm2, 100 g/ha: 1 μg/cm^2 (=100 g/ha); for pest or weed control at 5 µg/cm2, 500 g/ha: 5 μg/cm^2 (=500 g/ha). The method, then:
Rhipicephalus (Boophilus) microplus—In-Vitro Contact Tests Larval Cattle Tick (Strain Parkhurst, Resistant Against Synthetic Pyrethroids)
9 mg compound is solved in 1 mL acetone and diluted with acetone to the desired concentration. […] the test solution is filled in 25 mL glass test tubes and homogeneously distributed on the inner walls by rotation and tilting on a shaking device (2 h at 30 rpm). With a compound concentration of 900 ppm, an inner surface of 44.7 cm^2 and a homogeneous distribution, a dose of 5 μg/cm^2 is achieved.
After the solvent has evaporated, each test tube is filled with 20-50 cattle tick larvae (Rhipicephalus microplus), closed with a perforated lid and incubated in a horizontal position at 85% relative humidity and 27° C. in an incubator. After 48 hours efficacy is determined. The larvae are patted on the ground of the tubes and negative geotactic behaviour is recorded.
An efficacy of 100% means all larvae are dead or moribund; 0% means no larvae are dead or moribund.

Turning to `CCN(C)C(=O)c1cnc(-c2ncc(C)nc2C(C)NC(=O)c2cc(C(F)(F)F)nc(C(F)(F)F)c2)s1` (racemic) [Example I-151, (rac)-N-[1-(3-{5-[Ethyl(methyl)carbamoyl]-1,3-thiazol-2-yl)-6-methylpyrazin-2-yl)ethyl]-2,6-bis(trifluoromethyl)pyridine-4-carboxamide], the mortality at 100 g/ha in test [1] came to 100%.

Consider `CC(NC(=O)c1cc(Cl)cc(C#N)c1)c1nccnc1-c1nccs1` (racemic) [Example I-57, (rac)-3-Chloro-5-cyano-N-{1-[3-(1,3-thiazol-2-yl)pyrazin-2-yl]ethyl}benzamide], for which the pest or weed control at 6.4 µg/disc, 20 g/ha in test [2] amounted to 80%. With `CC(NC(=O)c1cc(C(F)(F)F)cc(C(F)(F)F)c1)c1nccnc1-n1cc(C(=O)N2CCCC2)cn1` (racemic) [Example I-91, N-[(rac)-1-{3-[4-(Pyrrolidine-1-carbonyl)-1H-pyrazol-1-yl]pyrazin-2-yl}ethyl]-3,5-bis(trifluoromethyl)benzamide], in test [3], the pest or weed control at 1 µg/cm2, 100 g/ha amounted to 100% and the pest or weed control at 5 µg/cm2, 500 g/ha came out at 100%. Regarding `CC(NC(=O)c1cc(Br)cc(I)c1)c1nccnc1-n1cc(C#N)cn1` (racemic) [Example I-112, (rac)-3-Bromo-N-{1-[3-(4-cyano-1H-pyrazol-1-yl)pyrazin-2-yl]ethyl}-5-iodobenzamide], the pest or weed control at 32 µg/disc, 100 g/ha in test [2] came out at 100%. Turning to `CC(NC(=O)c1cc(C(F)(F)F)cc(C(F)(F)F)c1)c1nccnc1-c1ccc(C(=O)N2CCCC2)cn1` (racemic) [Example I-37, (rac)-N-[1-{3-[5-(Pyrrolidine-1-carbonyl)pyridin-2-yl]pyrazin-2-yl}ethyl]-3,5-bis(trifluoromethyl)benzamide], in test [3], the pest or weed control at 1 µg/cm2, 100 g/ha turned out to be 100% and the pest or weed control at 5 µg/cm2, 500 g/ha was 100%. With `CC(NC(=O)c1cc(Br)cc(OC(F)(F)F)c1)c1nccnc1-c1ccc(C(F)(F)F)cn1` (racemic) [Example I-44, (rac)-3-Bromo-5-(trifluoromethoxy)-N-[1-{3-[5-(trifluoromethyl)pyridin-2-yl]pyrazin-2-yl}ethyl]benzamide], the pest or weed control at 32 µg/disc, 100 g/ha in test [2] is 100%. Take `CC(NC(=O)c1cc(Cl)cc(Br)c1)c1nccnc1-c1ccc(C(F)(F)F)cn1` (racemic) [Example I-43, (rac)-3-Bromo-5-chloro-N-[1-{3-[5-(trifluoromethyl)pyridin-2-yl]pyrazin-2-yl}ethyl]benzamide]: the pest or weed control at 32 µg/disc, 100 g/ha in test [2] turned out to be 80%.

The compound `CC(NC(=O)c1cc(Cl)cc(OC(F)(F)F)c1)c1nccnc1-c1ncc(C(=O)N2CCOCC2)s1` (racemic) [Example I-60, (rac)-3-Chloro-N-[1-{3-[5-(morpholine-4-carbonyl)-1,3-thiazol-2-yl]pyrazin-2-yl}ethyl]-5-(trifluoromethoxy)benzamide] showed a mortality at 100 g/ha in test [1] of 83%. Consider `CC(NC(=O)c1cc(Cl)cc(OC(F)(F)F)c1)c1nccnc1-n1cc(C#N)cn1` (racemic) [Example I-104, (rac)-3-Chloro-N-{1-[3-(4-cyano-1H-pyrazol-1-yl)pyrazin-2-yl]ethyl}-5-(trifluoromethoxy)benzamide], for which, in test [2], the pest or weed control at 6.4 µg/disc, 20 g/ha turned out to be 100% and the pest or weed control at 32 µg/disc, 100 g/ha was 100%.

Take `CC(NC(=O)c1cc(C(F)(F)F)cc(C(F)(F)F)c1)c1nccnc1-c1ncc(C(=O)N2CCCC2)s1` (racemic) [Example I-71, (rac)-N-[1-{3-[5-(Pyrrolidine-1-carbonyl)-1,3-thiazol-2-yl]pyrazin-2-yl}ethyl]-3,5-bis(trifluoromethyl)benzamide]: in test [2], the pest or weed control at 6.4 µg/disc, 20 g/ha is 100% and the pest or weed control at 32 µg/disc, 100 g/ha is 100%. `COc1ccc(-c2nccnc2C(C)NC(=O)c2cc(Cl)cc(C(F)(F)F)c2)nc1` (stereo not drawn) [Example I-29]: the pest or weed control at 5 µg/cm2, 500 g/ha in test [3] was 90%. In test [2], the pest or weed control at 6.4 µg/disc, 20 g/ha came out at 100% and the pest or weed control at 32 µg/disc, 100 g/ha turned out to be 100%. In test [1], `CCN(C)C(=O)c1cnc(-c2ncc(C)nc2C(C)NC(=O)c2cc(C(F)(F)F)cc(C(F)(F)F)c2)s1` (racemic) [Example I-148, (rac)-2-(3-{1-[3,5-Bis(trifluoromethyl)benzamido]ethyl}-5-methylpyrazin-2-yl)-N-ethyl-N-methyl-1,3-thiazole-5-carboxamide] displayed a mortality at 100 g/ha of 100%. Take `CC(NC(=O)c1cc(Cl)cc(C#N)c1)c1nccnc1-n1cc(C#N)cn1` (racemic) [Example I-121, (rac)-3-Chloro-5-cyano-N-{1-[3-(4-cyano-1H-pyrazol-1-yl)pyrazin-2-yl]ethyl}benzamide]: the pest or weed control at 32 µg/disc, 100 g/ha in test [2] came to 100%. As to `CCN(C)C(=O)c1cnc(-c2nc(C)cnc2C(C)NC(=O)c2cc(C(F)(F)F)cc(C(F)(F)F)c2)s1` (stereo in doubt) [Example I-157, (+)-2-(3-{(1S)-1-[3,5-bis(trifluoromethyl)benzamido]ethyl}-6-methylpyrazin-2-yl)-N-ethyl-N-methyl-1,3-thiazole-5-carboxamide], the mortality at 100 g/ha in test [1] came out at 100%. Regarding `COc1ccc(-c2nccnc2C(C)NC(=O)c2cc(C(F)(F)F)cc(C(F)(F)F)c2)nc1` (stereo not drawn) [Example I-26], the pest or weed control at 5 µg/cm2, 500 g/ha in test [3] came to 90%. Also, in test [2], the pest or weed control at 6.4 µg/disc, 20 g/ha is 100% and the pest or weed control at 32 µg/disc, 100 g/ha turned out to be 100%. For the compound `CC(NC(=O)c1cc(Br)cc(OC(F)(F)F)c1)c1nccnc1-n1cc(Cl)cn1` (racemic) [Example I-97, (rac)-3-Bromo-N-{1-[3-(4-chloro-1H-pyrazol-1-yl)pyrazin-2-yl]ethyl}-5-(trifluoromethoxy)benzamide], the pest or weed control at 32 µg/disc, 100 g/ha in test [2] is 100%. Take `Cc1cnc(-c2ncc(C(=O)N3C[C@@H](C)O[C@@H](C)C3)s2)c(C(C)NC(=O)c2cc(C(F)(F)F)cc(C(F)(F)F)c2)n1` (mixture of isomers) [Example I-127, (rac)-N-[1-(3-{5-[cis-2,6-dimethylmorpholine-4-carbonyl]-1,3-thiazol-2-yl}-6-methylpyrazin-2-yl)ethyl]-3,5-bis(trifluoromethyl)benzamide]: in test [3], the pest or weed control at 1 µg/cm2, 100 g/ha came out at 100% and the pest or weed control at 5 µg/cm2, 500 g/ha came to 100%. As for `CC(NC(=O)c1cc(Cl)cc(C#N)c1)c1nccnc1-c1ccc(C(F)(F)F)cn1` (racemic) [Example I-40, (rac)-3-Chloro-5-cyano-N-[1-{3-[5-(trifluoromethyl)pyridin-2-yl]pyrazin-2-yl}ethyl]benzamide], in test [2], the pest or weed control at 32 µg/disc, 100 g/ha came to 100%.

As to `Cc1cnc(C(C)NC(=O)c2cc(C(F)(F)F)cc(C(F)(F)F)c2)c(-c2ncc(C(=O)N3C[C@@H](C)O[C@@H](C)C3)s2)n1` (mixture of isomers) [Example I-126, (rac)-N-[1-(3-{5-[cis-2,6-Dimethylmorpholine-4-carbonyl]-1,3-thiazol-2-yl}-5-methylpyrazin-2-yl)ethyl]-3,5-bis(trifluoromethyl)benzamide], in test [3], the pest or weed control at 1 µg/cm2, 100 g/ha worked out at 100% and the pest or weed control at 5 µg/cm2, 500 g/ha was found to be 100%. Moreover, the pest or weed control at 32 µg/disc, 100 g/ha in test [2] is 100%.

As to `CC(NC(=O)c1cncc(C(C)(C)C)c1)c1nccnc1-c1nccs1` (racemic) [Example I-6, (rac)-5-(tert-Butyl)-N-(1-(3-(thiazol-2-yl)pyrazin-2-yl)ethyl)nicotinamide], in test [3], the pest or weed control at 1 µg/cm2, 100 g/ha was 80% and the pest or weed control at 5 µg/cm2, 500 g/ha amounted to 80%.

For `CC(NC(=O)c1cc(C(F)(F)F)cc(C(F)(F)F)c1)c1nccnc1-c1ncc(C(=O)N2CCC[Si](C)(C)C2)s1` (racemic) [Example I-70, (rac)-N-[1-{3-[5-(3,3-Dimethyl-1,3-azasilinane-1-carbonyl)-1,3-thiazol-2-yl]pyrazin-2-yl}ethyl]-3,5-bis(trifluoromethyl)benzamide], in test [2], the pest or weed control at 32 µg/disc, 100 g/ha was determined as 100%.

`CC(NC(=O)c1cc(C(F)(F)F)cc(C(F)(F)F)c1)c1nccnc1-n1cc(Cl)cn1` (racemic) [Example I-96, N-{(rac)-1-[3-(4-Chloro-1H-pyrazol-1-yl)pyrazin-2-yl]ethyl}-3,5-bis(trifluoromethyl)benzamide]: in test [2], the pest or weed control at 6.4 µg/disc, 20 g/ha turned out to be 100% and the pest or weed control at 32 µg/disc, 100 g/ha turned out to be 100%. Regarding `CC(NC(=O)c1cc(Cl)cc(C#N)c1)c1nccnc1-c1ccccn1` (stereo not drawn) [Example I-18], in test [2], the pest or weed control at 32 µg/disc, 100 g/ha amounted to 100%.

The mortality is the percentage killed. Read a high mortality as fewer survivors.
